Measured values published in ChEMBL document CHEMBL2034957, “Synthesis and antitumor evaluation of novel benzo[d]pyrrolo[2,1-b]thiazole derivatives” (Eur J Med Chem, 2012).
Calls of active or inactive are those of the source. The rule behind the calls is not given here.

Tests used:
CCRF-CEM [1] = test: Cytotoxicity against human taxol-resistant CCRF-CEM cells after 72 hrs by XTT assay; format: functional, cell-based
CCRF-CEM [2] = test: Cytotoxicity against human CCRF-CEM cells after 72 hrs by XTT assay; format: functional, cell-based
CCRF-CEM [3] = test: Ratio of IC50 for human vinblastine-resistant CCRF-CEM cells to IC50 for human CCRF-CEM cells; format: functional
CCRF-CEM [4] = test: Ratio of IC50 for human taxol-resistant CCRF-CEM cells to IC50 for human CCRF-CEM cells; format: functional
CCRF-CEM [5] = test: Cytotoxicity against human vinblastine-resistant CCRF-CEM cells after 72 hrs by XTT assay; format: functional, cell-based
HCT-116 = test: Cytotoxicity against human HCT116 cells after 72 hrs by SRB assay; format: functional, cell-based; conditions: HCT-116, 72 h
MX1 [6] = test: Cytotoxicity against human MX1 cells after 72 hrs by SRB assay; format: functional, cell-based; conditions: MX1, 72 h
[7] = Cytotoxicity against human H1299 cells after 72 hrs by alamar blue assay; format: functional, cell-based; conditions: NCI-H1299, 72 h
Nucleic Acid = test: Induction of Escherichia coli pEGFP-N1 DNA interstrand cross-linking at 1 to 20 uM after 2 hrs using ethidium bromide staining by alkaline agarose gel shift assay; format: nucleic-acid assay
[8] = Cytotoxicity against human U87 cells after 72 hrs by alamar blue assay; format: functional, cell-based, U-87MG ATCC; conditions: U-87 MG
[9] = Cytotoxicity against human OECM1 cells after 72 hrs by alamar blue assay; format: functional, cell-based; conditions: OECM1, 72 h
PC-3 = test: Cytotoxicity against human PC3 cells after 72 hrs by alamar blue assay; format: functional, cell-based; conditions: PC-3, 72 h
Mus musculus [10] = test: Toxicity in athymic nude mouse assessed as weight loss at 30 mg/kg, iv administered q2d for 4 days; format: organism-based; parameters: dose 30 mg/kg, route intravenous; conditions: in vivo, 96 h
Mus musculus [11] = test: Toxicity in athymic nude mouse assessed as weight loss at 10 mg/kg, iv administered q2d for 4 days; format: organism-based; parameters: dose 10 mg/kg, route intravenous; conditions: in vivo, 96 h
Mus musculus [12] = test: Toxicity in athymic nude mouse assessed as weight loss at 20 mg/kg, iv administered q2d for 3 days followed by 25 mg/kg, iv q2d for 4 days; format: organism-based; conditions: in vivo
[13] = Cell cycle arrest in human H1299 cells assessed as accumulation of G1 phase cells at 25 uM at 48 hrs by propidium iodideee-based flow cytometry; format: functional; conditions: NCI-H1299
[14] = Cell cycle arrest in human H1299 cells assessed as reduction in G1 phase cells at 25 uM at 24 hrs by propidium iodideee-based flow cytometry; format: functional; conditions: NCI-H1299
MX1 [15] = test: Antitumor activity against human MX1 cells xenografted in athymic nude mouse assessed as tumor suppression at 10 mg/kg, iv administered q2d for 4 days; format: functional
[16] = Cell cycle arrest in human H1299 cells at 18 uM after 24 hrs by propidium iodidee-based flow cytometry; format: functional; conditions: NCI-H1299
Mus musculus [17] = test: Toxicity in athymic nude mouse assessed as weight loss at 20 mg/kg, iv administered q2d for 3 days followed by 25 mg/kg, iv q2d for 5 days; format: organism-based; conditions: in vivo
[18] = Cell cycle arrest in human H1299 cells at 18 uM after 48 hrs by propidium iodidee-based flow cytometry; format: functional; conditions: NCI-H1299
[19] = Cell cycle arrest in human H1299 cells assessed as increase in sub-G1 phase cells at 4.5 to 9 uM after 24 hrs by propidium iodidee-based flow cytometry; format: functional; conditions: NCI-H1299
[20] = Toxicity in iv dosed athymic nude mouse assessed as mortality; format: organism-based; conditions: in vivo
MX1 [21] = test: Antitumor activity against human MX1 cells xenografted in athymic nude mouse assessed as tumor remission at 20 mg/kg, iv administered q2d for 3 days followed by 25 mg/kg, iv q2d for 5 days measured on day 26 post-tumor implantation; format: functional, organism-based
MX1 [22] = test: Antitumor activity against human MX1 cells xenografted in athymic nude mouse assessed as tumor remission at 20 mg/kg, iv administered q2d for 3 days followed by 25 mg/kg, iv q2d for 4 days measured on day 26 post-tumor implantation; format: functional, organism-based
[23] = Cell cycle arrest in human H1299 cells assessed as reduction in G2/M phase cells at 4.5 to 9 uM after 48 hrs by propidium iodidee-based flow cytometry; format: functional; conditions: NCI-H1299
MX1 [24] = test: Antitumor activity against human MX1 cells xenografted in athymic nude mouse assessed as tumor remission at 20 mg/kg, iv administered q2d for 3 days followed by 25 mg/kg, iv q2d for 4 days measured on day 28 post-tumor implantation; format: functional, organism-based
[25] = Cell cycle arrest in human H1299 cells assessed as G2/M phase cells at 4.5 to 9 uM after 24 hrs by propidium iodidee-based flow cytometry; format: functional; conditions: NCI-H1299
[26] = Cell cycle arrest in human H1299 cells assessed as reduction in G1 phase cells after 24 to 48 hrs by propidium iodidee-based flow cytometry; format: functional; conditions: NCI-H1299
[27] = Cell cycle arrest in human H1299 cells assessed as accumulation of G2/M phase cells after 24 to 48 hrs by propidium iodidee-based flow cytometry; format: functional; conditions: NCI-H1299
MX1 [28] = test: Antitumor activity against human MX1 cells xenografted in athymic nude mouse assessed as tumor suppression at 30 mg/kg, iv administered q2d for 4 days; format: functional
[29] = Cell cycle arrest in human H1299 cells assessed as accumulation of sub-G1 phase cells after 24 to 48 hrs by propidium iodidee-based flow cytometry; format: functional; conditions: NCI-H1299

Compound | IC50 (CCRF-CEM [1]) | IC50 (CCRF-CEM [2]) | Ratio IC50 (CCRF-CEM [3]) | Ratio IC50 (CCRF-CEM [4]) | IC50 (CCRF-CEM [5]) | IC50 (HCT-116) | IC50 (MX1 [6]) | IC50 [7] | Activity (Nucleic Acid) | IC50 [8] | IC50 [9] | IC50 (PC-3) | also measured
Cc1c(CO)c(CO)c2sc3ccccc3n12 | 1.88 µM | 0.97 µM | 1.91 | 1.93 | 1.86 µM | 4.44 µM | 7.1 µM |  |  |  |  |  | 
CCNC(=O)OCc1c(COC(=O)NCC)c2sc3ccccc3n2c1-c1ccc(OC)cc1 | 0.37 µM | 0.19 µM | 2.2 | 1.9 | 0.42 µM |  |  | 8.85 µM | Active | 29.5 µM | 9.39 µM | 17.9 µM | 
CC(C)NC(=O)OCc1c(COC(=O)NC(C)C)c2sc3ccccc3n2c1-c1ccc(F)cc1 | 0.16 µM | 0.05 µM | 3.8 | 3.2 | 0.19 µM | 0.35 µM | 0.62 µM | 33 µM | Active | 53.5 µM | 11.9 µM | 24.2 µM | Activity (Mus musculus [10]): 20%; Activity (Mus musculus [11]): 20%; Activity (Mus musculus [12]): 20%
COc1ccc(-c2c(CO)c(CO)c3sc4ccccc4n23)cc1 | 2.17 µM | 1.13 µM | 2.3 | 1.9 | 2.63 µM |  |  | 9.94 µM | Active | 18.1 µM | 5 µM | 8.81 µM | 
OCc1c(CO)c2sc3ccccc3n2c1-c1ccc(F)cc1 | 2.56 µM | 1.06 µM | 3.5 | 2.41 | 3.72 µM | 9.59 µM | 2.77 µM | 9.27 µM | Active | 15.5 µM | 6.03 µM | 13.8 µM | 
OCc1c(CO)c2sc3ccccc3n2c1-c1ccc(Cl)cc1 | 5.22 µM | 2.61 µM | 1.56 | 2 | 4.09 µM | 9.26 µM | 10.4 µM | 12.4 µM | Active | 20.7 µM | 14.6 µM | 20.4 µM | Activity [13]: Active; Activity [14]: Active
CCNC(=O)OCc1c(COC(=O)NCC)c2sc3ccccc3n2c1-c1ccc(F)c(F)c1 | 0.34 µM | 0.21 µM | 1.47 | 1.61 | 0.31 µM | 1.1 µM | 1.49 µM | 10.3 µM |  | 38.5 µM | 14.6 µM | 19.3 µM | 
COc1ccc(-c2c(COC(=O)NC(C)C)c(COC(=O)NC(C)C)c3sc4ccccc4n23)cc1 | 0.17 µM | 0.14 µM | 1.47 | 1.17 | 0.25 µM |  |  | 8.19 µM | Active | 60.9 µM | 7.23 µM | 17.5 µM | 
CCNC(=O)OCc1c(COC(=O)NCC)c2sc3ccccc3n2c1-c1ccc(F)cc1 | 0.38 µM | 0.07 µM | 6.42 | 5.42 | 0.45 µM | 0.52 µM | 0.48 µM | 13.6 µM | Active | 29.2 µM | 11.5 µM | 23.7 µM | Activity (MX1 [15]): >99%; Activity (Mus musculus [10]): 20%; Activity (Mus musculus [11]): 20%; Activity (Mus musculus [12]): 20%
CC(C)NC(=O)OCc1c(COC(=O)NC(C)C)c2sc3ccccc3n2c1-c1ccc(Cl)cc1 | 0.39 µM | 0.08 µM | 5.25 | 4.87 | 0.42 µM | 1.7 µM | 1.19 µM | 8.75 µM | Active | 29 µM | 7.54 µM | 13.7 µM | Activity [16]: Active; Activity (Mus musculus [17]): 10%; Activity [18]: inactive; Activity [19]: Active; MTD [20]: 20 mg/kg; Activity (MX1 [21]): Active; Activity (MX1 [22]): Active; Activity [23]: Active; Activity (MX1 [24]): Active; Activity [25]: Active
CC(C)NC(=O)OCc1c(COC(=O)NC(C)C)c2sc3ccccc3n2c1-c1ccc(F)c(F)c1 | 0.19 µM | 0.33 µM | 0.9 | 0.57 | 0.3 µM | 0.41 µM | 1 µM | 30.8 µM |  | 74.9 µM | 15.1 µM | 29.6 µM | 
CCNC(=O)OCc1c(COC(=O)NCC)c2sc3ccccc3n2c1-c1ccc(Cl)cc1 | 0.32 µM | 0.21 µM | 1.85 | 1.52 | 0.39 µM | 0.7 µM | 0.91 µM | 4.33 µM | Active | 26 µM | 11.6 µM | 13.8 µM | Activity [26]: Dose-dependent effect; Activity (Mus musculus [10]): 20%; Activity (Mus musculus [11]): 20%; Activity [27]: Active; Activity (MX1 [28]): >99%; Activity [29]: Active; Activity (Mus musculus [12]): 20%
Cc1c(COC(=O)NC(C)C)c(COC(=O)NC(C)C)c2sc3ccccc3n12 | 0.22 µM | 0.13 µM | 1.92 | 1.69 | 0.25 µM | 0.97 µM | 0.13 µM | 9.7 µM |  |  |  |  | 
